In patent publication US20240122212A1 (SUNTORY HOLDINGS LIMITED, priority 2020, published 2024):
Where two headings read alike, the source gives them in different places. Values belong to the compound of their own block, whether it stands above or below them.

Legend:
[1] = sucrose per unit concentration Brix 1 = 1, cited from earlier work
[2] = target: T1, sweet taste receptor (T1R2/T1R3) (Homo sapiens, UniProt Q7RTX0+Q8TE23); test: Sensory evaluation of sweetness intensity (VAS) in the co-presence of sweet taste receptor inhibitor lactisole (Example 5); type: in vivo; details: for Sweetness intensity residual ratio (%) with addition of 100 ppm lactisole: lactisole-free solution = 100%, sucrose 8 w/v %, sucralose 149 ppm, D- or L-arabinose 13.3 w/v %, VAS, average of n=3
T1 construct: endogenous in cells; host or cells: taste cells in the mouths of 3 trained human panelists (in vivo spitting test)
T1 sequence (Q8TE23 20-839): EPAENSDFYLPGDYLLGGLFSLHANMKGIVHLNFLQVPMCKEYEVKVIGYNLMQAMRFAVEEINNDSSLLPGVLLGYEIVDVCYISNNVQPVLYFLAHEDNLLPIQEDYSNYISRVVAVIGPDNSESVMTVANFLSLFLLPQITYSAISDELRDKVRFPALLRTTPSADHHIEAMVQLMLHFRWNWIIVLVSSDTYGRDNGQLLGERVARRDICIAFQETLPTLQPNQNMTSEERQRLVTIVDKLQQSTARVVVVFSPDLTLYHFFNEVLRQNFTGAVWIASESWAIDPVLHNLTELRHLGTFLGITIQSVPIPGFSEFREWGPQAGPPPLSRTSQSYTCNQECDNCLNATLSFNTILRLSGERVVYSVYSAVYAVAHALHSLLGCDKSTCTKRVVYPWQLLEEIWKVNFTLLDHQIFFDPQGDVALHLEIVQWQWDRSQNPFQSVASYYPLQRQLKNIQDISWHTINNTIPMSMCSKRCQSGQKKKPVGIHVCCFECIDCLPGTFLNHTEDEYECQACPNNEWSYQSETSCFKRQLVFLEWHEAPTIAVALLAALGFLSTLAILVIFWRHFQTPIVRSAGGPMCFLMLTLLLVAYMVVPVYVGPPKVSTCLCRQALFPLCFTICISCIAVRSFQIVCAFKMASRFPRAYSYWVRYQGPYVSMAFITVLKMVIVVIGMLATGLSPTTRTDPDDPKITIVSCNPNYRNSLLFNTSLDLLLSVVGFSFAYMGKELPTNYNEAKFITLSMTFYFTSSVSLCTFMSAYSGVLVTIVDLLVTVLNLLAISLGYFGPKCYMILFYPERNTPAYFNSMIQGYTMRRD
T1 sequence (Q7RTX0 21-852): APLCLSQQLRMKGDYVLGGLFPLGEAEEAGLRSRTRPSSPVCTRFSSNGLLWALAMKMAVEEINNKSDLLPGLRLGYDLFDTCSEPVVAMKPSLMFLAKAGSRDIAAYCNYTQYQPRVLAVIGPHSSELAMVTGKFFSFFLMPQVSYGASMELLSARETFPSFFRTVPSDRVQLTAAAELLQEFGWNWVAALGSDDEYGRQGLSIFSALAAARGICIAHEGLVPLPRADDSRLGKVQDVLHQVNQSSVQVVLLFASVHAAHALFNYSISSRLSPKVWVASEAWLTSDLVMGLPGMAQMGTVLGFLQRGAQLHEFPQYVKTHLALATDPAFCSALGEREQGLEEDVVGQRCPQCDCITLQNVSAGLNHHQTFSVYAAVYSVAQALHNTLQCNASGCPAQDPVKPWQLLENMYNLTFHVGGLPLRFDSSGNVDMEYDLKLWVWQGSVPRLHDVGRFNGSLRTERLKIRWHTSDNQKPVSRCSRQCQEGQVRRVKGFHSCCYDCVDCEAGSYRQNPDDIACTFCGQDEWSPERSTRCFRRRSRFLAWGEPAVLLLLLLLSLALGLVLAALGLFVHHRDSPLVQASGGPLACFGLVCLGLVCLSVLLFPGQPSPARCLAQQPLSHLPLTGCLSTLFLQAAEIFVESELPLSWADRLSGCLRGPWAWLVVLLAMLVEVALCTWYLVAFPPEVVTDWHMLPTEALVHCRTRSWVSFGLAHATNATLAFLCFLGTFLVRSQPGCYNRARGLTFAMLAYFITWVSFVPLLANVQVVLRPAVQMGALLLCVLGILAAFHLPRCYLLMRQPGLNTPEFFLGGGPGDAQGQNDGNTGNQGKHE
Excerpt: Whether or not a certain sweet substance can trigger a sweetness response even if a sweetness response through the sweet taste receptor T1R2/T1R3 is inhibited may be determined by, for instance, measuring, by sensory evaluation or cell assay, the sweetness intensity of a solution (control solution), in which only the above sweet substance has been dissolved, and the sweetness intensity (remaining sweetness intensity) of a solution (test solution), in which a sweet taste receptor T1R2/T1R3 inhibitor (e.g., lactisole, gymnemic acid) is added for inhibiting a sweetness response through the sweet taste receptor T1R2/T1R3 to the control solution; and by comparing the sweetness intensity of the control solution and the sweetness intensity of the test solution.
The evaluation was carried out by those (3 persons) who received sensory trainings as panelists. […] Additionally, solutions having the same composition as sample solutions 1, 2, 3, and 4 except that lactisole was not added were used as control solutions 1, 2, 3, and 4. The sensory evaluation was carried out by spitting test. The sweetness intensity was rated by the VAS scale and calculated with the intensity of a solution to which lactisole was not added being 100% and the sweetness intensity of a solution to which lactisole was added as a relative value (%). The sweetness inhibitory effect by lactisole was verified by this.

[3] = Degree of sweetness relative to sucrose; details: value used to design the sample solutions of Example 5
Excerpt: The “sweetness intensity” means an intensity of sweetness of a substance. […] A numerical value obtained by multiplying the degree of sweetness by a concentration Brix value of glucose is the sweetness intensity of glucose in terms of sucrose. Thus, when a concentration of glucose in terms of sucrose is Brix 1.5, the sweetness intensity of glucose is 0.65×1.5=0.975. The sweetness intensity of a sweetener in terms of sucrose can be calculated from a degree of sweetness shown in the following table or a value of a known degree of sweetness.
For example, when the sweetness intensity of sucrose per unit concentration Brix 1 is defined as a degree of sweetness of 1, a degree of sweetness of rebaudioside D is about 200 to 250 (median value 225), a degree of sweetness of rebaudioside M is about 200 to 260 (median value 230), a degree of sweetness of rebaudioside B is about 325, a degree of sweetness of rebaudioside A is about 200 to 300 (median value 250), a degree of sweetness of rebaudioside N is about 200 to 250 (median value 225), a degree of sweetness of rebaudioside O is about 200 to 250 (median value 225), a degree of sweetness of rebaudioside E is about 70 to 80 (median value 75), a degree of sweetness of a Luo han guo extract (containing 40% of Mog V) is about 110 to 150 (median value 130), a degree of sweetness of mogroside V is about 240 to 300 (median value 270), and a degree of sweetness of thaumatin is about 2,000, and a degree of sweetness of brazzein is about 500 to 2,000 (median value 1,250). The numerical value obtained by multiplying these degrees of sweetness by a concentration (w/v % (considered to be the same as w/w % in the case of a beverage)) of the high-intensity sweetener in a fruit juice beverage is a sweetness intensity of the high-intensity sweetener. The relative ratio in degrees of sweetness of various sweeteners to the degree of sweetness of 1 of sucrose can be determined from a known sugar sweetness conversion table, and the like. In the present description, when a degree of sweetness is shown in a numerical value range, the median value may be used. However, a sweetener having different values in a degree of sweetness by literatures, a relative ratio in a degree of sweetness to the degree of sweetness of 1 of sucrose can be defined by a sensory test. Examples of such a sensory test include a method in which samples were prepared by adding sucrose having a sweetness intensity of Brix 3.0 to 5.0 in 0.5 increments to pure water, and of which a sucrose-added sample having a sweetness intensity equal to an aqueous solution of a sweetener in a predetermined concentration is selected.
Additionally, for a sweetener with a variable degree of sweetness as a sweetness intensity increases, degrees of sweetness in different concentrations are actually measured and plotted whereby a degree of sweetness in a predetermined concentration may be calculated from the obtained approximate curve.

[4] = Basic taste quality sensory evaluation by trained panelists, spitting test, against 6% sucrose control (Example 1); type: in vivo, human; details: scale −3 to 3, 0 = no difference from 6% sucrose control; D-allulose 8.57 w/v %, D-arabinose 10 w/v % in pure water; 4 panelists
Experimental: In each evaluation item, the rating on a scale of −3 point to 3 point was performed, with the case where there is no difference from the control solution being 0. Quicker in sweetness onset, higher sweetness intensity, shorter lingering sweet aftertaste, lower bitterness intensity, and shorter lingering bitter aftertaste compared to the control were rated near 3 points. Slower in sweetness onset, lower sweetness intensity, longer lingering sweet aftertaste, higher bitterness intensity, and longer lingering bitter aftertaste compared to the control were rated near −3 points. That is, the closer to 0 point, the closer to the control. The evaluation was carried out by those (4 persons) who received sensory trainings as panelists by spitting test. The amount of a sweet substance contained in each sample solution was adjusted to be equal to the control solution on the calculation. […] The energy (kcal/100 ml) was calculated from the amount of the sweetener added.

Compound: thaumatin
Degree of sweetness ([1]; high-intensity sweeteners): about 2,000

Compound: OC[C@H]1O[C@H](O[C@H]2[C@H](O)[C@@H](O)[C@H](O)O[C@@H]2CO)[C@H](O)[C@@H](O)[C@@H]1O [Maltose]
Degree of sweetness ([1]; Table 1): 0.4

remaining sweetness intensity when 100 ppm of lactisole was added, compared with sucrose ([2]; 100 ppm lactisole): equal to or more than that of sucrose | Sweetness intensity residual ratio (%) with addition of 100 ppm lactisole [2]: 34.43%
Compound: O=C[C@H](O)[C@@H](O)[C@@H](O)CO [L-Arabinose]
sweetness intensity, times as much as that of sucrose [3]: 0.6 times

Compound: O=C[C@H](O)[C@H](O)[C@H](O)[C@H](O)CO [Allose]
Degree of sweetness ([1]; Table 1): 0.8

Compound: O=C(CO)[C@@H](O)[C@@H](O)[C@H](O)CO [Tagatose]
Degree of sweetness ([1]; Table 1): 0.9

Sweetness intensity residual ratio (%) with addition of 100 ppm lactisole [2]: 29.05%
Compound: OC[C@H]1O[C@@](CO)(O[C@H]2O[C@H](CO)[C@@H](O)[C@H](O)[C@H]2O)[C@@H](O)[C@@H]1O [Sucrose]
Degree of sweetness ([1]; Table 1): 1 | Bitterness intensity [4]: 0 point | Lingering bitter aftertaste [4]: 0 point | Lingering sweet aftertaste [4]: 0 point | Quickness in sweetness onset [4]: 0 point | Sweetness intensity [4]: 0 point

Compound: rebaudioside B
Degree of sweetness ([1]; high-intensity sweeteners): about 325

Sweetness intensity residual ratio (%) with addition of 100 ppm lactisole [2]: 8.99%
Compound: OC[C@H]1O[C@H](O[C@]2(CCl)O[C@H](CCl)[C@@H](O)[C@@H]2O)[C@H](O)[C@@H](O)[C@H]1Cl [Sucralose]
sweetness intensity, times as much as that of sucrose [3]: 538.54 times
